A value given as a limit tells only on which side of the number the result lay.

The source of these data is patent US20250295652A1, “Inhibitors of Molluscum Contagiosum Infection and Methods Using the Same” (priority 2021, published 2025).

For one assay, the system named is mD4-VV surrogate virus. In words: microbe, parasite or virus in culture.
Conditions: not given
Type of assay: cell-based, mD4/vaccinia hybrid virus.
Turning to `CCC(C(=O)Nc1sccc1C(=O)OC)c1ccccc1` (stereo not shown) [Compound 112, Methyl 2-(2-phenylbutanamido)thiophene-3-carboxylate], the “% @ 25 uM (mD4)” value is 59% @ 25 uM.

In the case of `COC(=O)c1ccsc1NC(=O)N1CCN(c2ccccn2)CC1` [Compound 114, Methyl 2-(4-(pyridin-2-yl)piperazine-1-carboxamido)thiophene-3-carboxylate], the “% @ 25 uM (mD4)” value was 32% @ 25 uM.

On to `CCC(C(=O)Nc1sc(C(N)=O)c(C)c1C(=O)OC)c1ccc(OC)cc1` (stereo not shown) [Compound 97, Methyl 2-(2-(4-methoxyphenyl)butanamido)-5-carbamoyl-4-methylthiophene-3-carboxylate], for which the “% @ 25 uM (mD4)” value is recorded as 37% @ 25 uM.

Staying with this assay, now noted: Hybrid virus, BSC-1, read-out: mD4 EC50.
What is called EC50 is the concentration that produces a half-maximal response. In the case of `O=C(NCc1ccccc1)c1nnsc1NC(=O)N1CCN(c2ccccc2F)CC1` [Compound 169, 4-(2-Fluoro-phenyl)-piperazine-1-carboxylic acid (4-benzylcarbamoyl-[1,2,3]thiadiazol-5-yl)-amide], the EC50 came to 32.7 µM.

With `CCC(C(=O)Nc1sc(C(N)=O)c(C)c1C(=O)NCc1ccc(Cl)cc1)c1ccccc1` (stereo not shown) [Compound 115, 2-(2-Phenylbutanamido)-N3-(4-chlorobenzyl)-4-methylthiophene-3,5-dicarboxamide], the EC50 stood at 11 µM.

For `CCC(C(=O)Nc1sc(C(=O)OC(C)(C)C)c(C)c1C(=O)OC)c1ccc(C(F)(F)F)cc1` (stereo not shown) [Compound 198, 2-tert-butyl 4-methyl 5-(2-(4-(trifluoromethyl)phenyl)butanamido)-3-methylthiophene-2,4-dicarboxylate], the EC50 is more than 50 µM.

As for `CCC(C(=O)Nc1sc(C(N)=O)c(C)c1C(=O)OC)c1cccc(F)c1` (stereo not shown) [Compound 98, Methyl 2-(2-(3-fluorophenyl)butanamido)-5-carbamoyl-4-methylthiophene-3-carboxylate], the concentration for a half-maximal effect (EC50) is 18 µM.

Take `O=C(CCCc1ccccn1)Nc1snnc1C(=O)NCc1ccc(Cl)cc1` [Compound 175, 5-(4-(Pyridin-2-yl)butanamido)-N-(4-chlorobenzyl)-1,2,3-thiadiazole-4-carboxamide]: the EC50 came to 15.5 µM.

Consider `CCC(C(=O)Nc1sc(C(=O)NC(C)c2ccncc2)c(C)c1C(=O)OC)c1ccc(F)cc1` (stereo not shown) [Compound 186, methyl 2-(2-(4-fluorophenyl)butanamido)-4-methyl-5-((1-(pyridin-4-yl)ethyl)carbamoyl)thiophene-3-carboxylate], for which the EC50 came to 20 µM.

Turning to `CCC(C(=O)Nc1sc(C(N)=O)c(C)c1C(=O)OC)c1ccc(Cl)cc1` (stereo not shown) [Compound 191, Methyl 5-carbamoyl-2-(2-(4-chlorophenyl)butanamido)-4-methylthiophene-3-carboxylate], the concentration for a half-maximal effect (EC50) stood at 11.4 µM.

Regarding `CCC(C(=O)Nc1sc(C(N)=O)c(C)c1C(=O)OC)c1ccc(C(F)(F)F)cc1` (stereo not shown) [Compound 190, methyl 5-carbamoyl-4-methyl-2-(2-(4-(trifluoromethyl)phenyl)butanamido)thiophene-3-carboxylate], the EC50 came to 4.8 µM.

Consider `CCC(C(=O)NC(=O)c1sc(N)c(C(=O)OC)c1C)c1ccc(F)cc1` (stereo not shown) [Compound 174, Methyl 5-(2-(4-fluorophenyl)butanoylcarbamoyl)-2-amino-4-methylthiophene-3-carboxylate], for which the EC50 came to 20.5 µM.

As to `CCC(C(=O)Nc1snnc1-c1ccc(F)cc1)c1ccccc1` (stereo not shown) [Compound 154, N-[4-(4-Fluoro-phenyl)-[1,2,3]thiadiazol-5-yl]-2-phenyl-butyramide], the EC50 was 32 µM.

For `CCC(C(=O)Nc1sc(C(=O)NCCCN)c(C)c1C(=O)OC)c1ccc(F)cc1` (stereo not shown) [Compound 203, Methyl 5-(3-aminopropylcarbamoyl)-2-(2-(4-fluorophenyl)butanamido)-4-methylthiophene-3-carboxylate], the concentration for a half-maximal effect (EC50) is 20 µM.

Regarding `CCC(C(=O)Nc1snnc1C(=O)NCc1ccc(Cl)cc1)c1ccccc1` (stereo not shown) [Compound 134, 5-(2-Phenyl-butyrylamino)-[1,2,3]thiadiazole-4-carboxylic acid 4-chloro-benzylamide], the 50% effective concentration (EC50) was found to be 11.5 µM.

As to `CCC(C(=O)Nc1sc(C(N)=O)c(C)c1C(=O)OC)c1ccc(C#N)cc1` (stereo not shown) [Compound 197, Methyl 2-(2-(4-cyanophenyl)butanamido)-5-carbamoyl-4-methylthiophene-3-carboxylate], the EC50 turned out to be 42 µM.

As to `CCC(C(=O)Nc1sc(C(=O)OC(C)(C)C)c(C)c1C(=O)OC)c1cc(F)cc(F)c1` (stereo not shown) [Compound 194, 2-tert-butyl 4-methyl 5-(2-(3,5-difluorophenyl)butanamido)-3-methylthiophene-2,4-dicarboxylate], the EC50 is more than 50 µM.

Consider `O=C(Nc1snnc1-c1ccc(C(F)(F)F)cc1)N1CCN(c2ccccn2)CC1` [Compound 118, 4-Pyridin-2-yl-piperazine-1-carboxylic acid [4-(4-trifluoromethyl-phenyl)-[1,2,3]thiadiazol-5-yl]-amide], for which the half-maximal effective concentration (EC50) worked out at 4 µM.

Turning to `CCC(C(=O)Nc1sc(C(N)=O)c(C)c1C(=O)OC)c1ccc2c(c1)OCO2` (stereo not shown) [Compound 193, Methyl 2-(2-(benzo[d][1,3]dioxol-5-yl)butanamido)-5-carbamoyl-4-methylthiophene-3-carboxylate], the EC50 is more than 50 µM.

`O=C(NCc1ccccc1)c1ccsc1NC(=O)N1CCN(c2ccccn2)CC1` [Compound 130, N-(3-(Benzylcarbamoyl)thiophen-2-yl)-4-(pyridin-2-yl)piperazine-1-carboxamide]: the EC50 amounted to 32.8 µM.

As to `CCC(C(=O)Nc1sc(C(N)=O)c(C)c1C(=O)OC)c1cc(F)cc(F)c1` (stereo not shown) [Compound 195, Methyl 2-(2-(3,5-difluorophenyl)butanamido)-5-carbamoyl-4-methylthiophene-3-carboxylate], the EC50 came out at 25.8 µM.

Consider `CCC(C(=O)Nc1scnc1C(=O)NCc1ccccc1)c1ccccc1` (stereo not shown) [Compound 162, 5-(2-Phenylbutanamido)-N-benzylthiazole-4-carboxamide], for which the concentration giving a half-maximal response (EC50) stood at 18.1 µM.

For `CCC(C(=O)Nc1sc(C(=O)NCCc2cccnc2)c(C)c1C(=O)OC)c1ccc(F)cc1` (stereo not shown) [Compound 187, methyl 2-(2-(4-fluorophenyl)butanamido)-4-methyl-5-((2-(pyridin-3-yl)ethyl)carbamoyl)thiophene-3-carboxylate], the concentration giving a half-maximal response (EC50) came out at 13.8 µM.

As to `CCOC(=O)c1ncsc1NC(=O)N1CCN(c2ccccn2)CC1` [Compound 127, Ethyl 5-(4-(pyridin-2-yl)piperazine-1-carboxamido)thiazole-4-carboxylate], the concentration for a half-maximal effect (EC50) worked out at 29.5 µM.

For the molecule `CCC(C(=O)Nc1snnc1-c1ccccc1)c1ccccc1` (stereo not shown) [Compound 155, 2-Phenyl-N-(4-phenyl-[1,2,3]thiadiazol-5-yl)-butyramide], the EC50 is 16.2 µM.

As to `Cc1ccc(CNC(=O)c2nnsc2NC(=O)N2CCN(c3ccccn3)CC2)cc1` [Compound 124, 4-Pyridin-2-yl-piperazine-1-carboxylic acid [4-(4-methyl-benzylcarbamoyl)-[1,2,3]thiadiazol-5-yl]-amide], the 50% effective concentration (EC50) turned out to be 14.5 µM.

Regarding `CCC(C(=O)Nc1sc(C(N)=O)c(C)c1C(=O)OC)c1ccccc1OC` (stereo not shown) [Compound 95, Methyl 2-(2-(2-methoxyphenyl)butanamido)-5-carbamoyl-4-methylthiophene-3-carboxylate], the EC50 was determined as 21.2 µM.

Turning to `Cc1c(C(N)=O)sc(NC(=O)N2CCN(c3ccccn3)CC2)c1C(=O)NCc1ccccc1` [Compound 131, 2-(4-(pyridin-2-yl)piperazine-1-carboxamido)-N3-benzyl-4-methylthiophene-3,5-dicarboxamide], the EC50 came to 31.8 µM.
